How the values were obtained:
[1] = system: Human Aortic Endothelial Cells (HAEC); assay: Cell viability via normalized ATP levels in HAEC; format: cell-based; settings: higher dosing levels; 6 hours; Donors 486 and 662; FIGS. 13 and 14
Method: (§1) HAEC cells were cultured and used at passage 6. Cells were seeded in clear bottom, black wall 96-well tissue culture-treated polystyrene plates by resuspending a cell suspension at a density of 150,000 cells/mL in growth medium, then dispensing 100 microliters of cell suspension per well using an electronic multichannel pipette, corresponding to 15,000 cells/well (one plate per donor). The cell-containing plates were incubated 3 hours at 37° C. in an atmosphere with 95% humidity and 5% CO2 to allow attachment of the cells to the culture plate.
(§2) Test compounds were then added to varying final concentrations using the Tecan D300e Digital Dispenser, with subsequent back-filling with DMSO diluent to a final concentration of 0.6% (v/v). Cell plates were incubated for 20 hours at 37° C. in an atmosphere of 5% CO2 and 95% humidity.
FIGS. 7-14 present an expanded array of pro-inflammatory cytokines, including IL-6, IL-8, and TNFa (Tumor Necrosis Factor alpha). […] In these figures, GT is gamma-tocopherol, and DT is delta-tocopherol.

[2] = system: Male C57BL/6 mice; assay: APAP-induced liver damage in mice, serum liver enzymes ALT and AST; format: in vivo; settings: for mean serum concentration of liver enzyme (ALT) versus APAP alone: 300 mg/kg SC pre-dosing for 4 days
Method: Compounds described herein were tested to determine their effects on liver enzyme concentrations following introduction of APAP in sufficient quantity to cause liver trauma.
Male C57BL/6 mice (Charles River Laboratories), aged 10-12 weeks, were randomly and prospectively assigned to receive treatment with either a test compound or vehicle only. Prior to commencement of testing, the animals had been pre-dosed with a test compound of either EPI-A0001 ((RRR)-alpha tocopherol quinone) or EPI-743 (REE)-alpha tocotrienol quinone) via subcutaneous injection for 4 days at levels of 300 mg/kg body weight dose(s). One additional test compound was administrated at 4 hours prior to commencement of testing. The mice were fasted for 12 hours prior to being challenged with 300 mg/kg body weight with APAP or an equal volume of the dosing vehicle (sterile saline) via […].
The animals were each administered with a single subcutaneous (SC) 300 mg/kg body weight dose of APAP or vehicle only formulation as described herein. All animals were dosed at approximately the same time on the dosing day (±1 hour). Subcutaneous doses were administered via bolus injection between the skin and underlying layers of tissue in the scapular region on the back of each animal. The hair was not clipped from the injection site prior to dosing. The injection site was monitored for necrosis and other changes to the skin and hair.
At the time of sample collection, livers were collected for histopathology and metabolomics analyses and blood was collected for metabolomics analyses or separated into serum for the liver enzyme (AST, ALT) analyses.

[3] = system: Human Aortic Endothelial Cells (HAEC) stimulated with IL-1β; assay: Suppression of cytokine release from IL-1β-stimulated endothelial cells (Meso Scale); format: cell-based; settings: for drop in levels of IL-6: versus DMSO control and alpha-tocopherol, Donors 1 and 2; for difference in cytokine suppression between diastereomers: A0001-RRR versus A0001-SRR
Method: Human Aortic Endothelial Cells (HAEC) stimulated with IL-1β result in the secretion of pro-inflammatory cytokines IL-6, IL-8 and MCP-1 as described in Wu et al., Atherosclerosis 147, 297-307 (1999). The detection of these secreted cytokines in the presence or absence of compounds was performed using Meso Scale technology.
HAEC cells from two donors (Catalog no. 2535), EGM-2 media with BulletKit supplements (Catalog no. 3162) were purchased from Lonza. IL-1β (Catalog no. 200-01B) was purchased from Peprotech. Custom MSD U-plex plates with assays to detect IL-6, IL-8 and TNF-α (Catalog no. K15067L) were purchased from Meso Scale Discovery. The cells were grown in tissue culture-treated flasks according to Lonza's instructions.
Test samples were supplied in 1.5 mL glass vials. The compounds were diluted with an appropriate volume of DMSO to result in a 10 mM stock solution. Once dissolved, they were stored at −20° C.
as §1, §2
IL-1β was then added to a final concentration of 10 nanograms/mL and then cell plates were incubated at 37° C. in an atmosphere of 5% CO2 and 95% humidity for 6 hours. Media was collected in a separate polypropylene plate, foil sealed and frozen at −80° C. for up to 96 hours.
Frozen media samples were thawed on ice and IL-6, IL-8 and TNF-alpha were measured using the Meso Scale multiplex assay according to the manufacturer's instructions. Included on each MSD plate was a dilution of IL-6, IL-8 and TNF-alpha standards to accurately quantify the secreted proteins in the media.

[4] = Miscibility / solubility description; format: physicochemical
[5] = 4 hours, APAP 300 mg/kg, FIG. 1
[6] = 24 hours, 300 mg/kg SC pre-dosing, APAP 300 mg/kg, FIGS. 3 and 4

SMILES: CC1=C(C)C(=O)C(CCC(C)(O)CCCC(C)CCCC(C)CCCC(C)C)=C(C)C1=O (stereo not drawn) [A0001, RRR-alpha tocopherol quinone]
- effect on cell viability via normalized ATP levels [1]: only a slight effect
- mean serum concentration of liver enzyme (ALT) versus APAP alone [2, 5]: reduction in mean serum concentrations
- mean serum concentration level of ALT and AST versus APAP alone (G4) [2, 6]: reduction in mean serum concentration level
- IL-6 suppression ([3]; 7.5 μM, 6 hours IL-1β): no longer evident
- suppression of IL-6 levels ([3]; 15 μM, 6 hours IL-1β, compared with 60 μM and 30 μM): not as dramatic
- drop in levels of IL-6 ([3]; 30 μM, 6 hours IL-1β): > 50%
- drop in levels of IL-6 ([3]; 60 μM, 6 hours IL-1β): > 50%
- dose dependence of IL-6 suppression ([3]; 7.5-60 μM, 6 hours, FIGS. 5 and 6): dosing dependent effect
- difference in cytokine suppression between diastereomers ([3]; 6 hours, Donors 486 and 662): small variation
- suppression of the various cytokines (IL-6, IL-8, TNFa) ([3]; 6 hours, Donors 486 and 662, FIGS. 7-12): dose dependent suppression
- miscibility with other oils [4]: infinitely miscible
- solubility in aqueous solvents [4]: practically insoluble

SMILES: CC1=C(C)C(=O)C(CC[C@@](C)(O)CCC[C@H](C)CCC[C@H](C)CCCC(C)C)=C(C)C1=O [A0001-SRR]
- difference in cytokine suppression between diastereomers ([3]; 6 hours, Donors 486 and 662): small variation

SMILES: CC(=O)Nc1ccc(O)cc1 [APAP, Acetaminophen, reference compound]
- mean level of ALT in serum after APAP introduction ([2]; APAP 300 mg/kg alone (G3), 4 hours, FIG. 1): approximately 3000 U/L
- mean level of AST in serum after APAP introduction ([2]; APAP 300 mg/kg alone (G3), 4 hours, FIG. 2): ~3200 U/L

SMILES: CC(C)=CCC/C(C)=C/CC/C(C)=C/CCC(C)(O)CCC1=C(C)C(=O)C(C)=C(C)C1=O (stereo not drawn) [EPI-743, REE-alpha tocotrienol quinone]
- mean serum concentration of liver enzyme (ALT) versus APAP alone [2, 5]: reduction in mean serum concentrations
- share of animals with AST levels near zero ([2]; 4 hours, 300 mg/kg SC pre-dosing, APAP 300 mg/kg, 3 of 10, FIG. 2): 30%
- share of animals with ALT near zero ([2]; 4 hours, 300 mg/kg SC pre-dosing, APAP 300 mg/kg, 4 of 10, FIG. 1): 40%
- individual ALT and AST data points [2, 6]: several data points at or near zero
- mean serum concentration level of ALT and AST versus APAP alone (G4) [2, 6]: reduction in mean serum concentration level

Source: patent US20200121618A1, “METHODS AND COMPOSITIONS FOR TREATMENT OF INFLAMMATION AND OXIDATIVE STRESS” (BIOELECTRON TECHNOLOGY CORPORATION, priority 2017, published 2020)
